In US9689040B2, “Selective inhibitors of tumor-initiating cells” (Children's Medical Center Corporation, priority 2011, dated 2017):
“Also recorded” adds a separate entry of the source.

Legend:
[1] = test system: luminal MCF7 and BT-474 cells; assay: Viability of breast cancer cell lines treated with bortezomib (CellTiterGlo); format: cell-based, human
BPE cells = assay: Apoptosis (Annexin V/PI flow cytometry, caspase 3 and PARP cleavage immunoblot); format: cell-based, human; conditions: clinically relevant / low dose, 24 hours
Procedure: (§1) BPLER were used as control. […] The percentage of double-positive cells is indicated.
(§2) To further define factors underlying such properties of BPLER cells, we first determined the molecular mechanism by which proteasome inhibition affects the growth of these cells.
(§3) Immunoblot was performed as described^41. Primary antibodies were as follows: cleaved Caspase 3 (Cell Signaling, rabbit polyclonal, 1:1000), PARP1 (Santa Cruz, rabbit polyclonal, 1:500), MCL1 (Cell Signaling, Rabbit polyclonal, 1:1000), Bim (Santa Cruz, rabbit polyclonal, 1:500), Bik (Cell Signaling, rabbit polyclonal, 1:1000), Puma (Cell Signaling, rabbit polyclonal, 1:1000), Noxa (Calbiochem, mouse monoclonal, 1:500), Bid (Santa Cruz, rabbit polyclonal, 1:500), Bad (Santa Cruz, rabbit polyclonal, 1:500). Antibodies were diluted in 5% milk in TBS-T and incubated O.N. at 4° C. Secondary mouse and rabbit HRP-conjugated antibodies were from Amersham. Protein signal was detected using the ECL Plus kit (Amersham). For flow cytometry, cells were stained as previously described^33, using the following fluorescent-conjugated antibodies: CD44 (BD Biosciences), CD24 (BD Biosciences), CD326 (ESA, Biolegend), Annexin V (Invitrogen). For immunofluorescence microscopy, cells were fixed in 2% PFA for 10 min, permeabilized with 1% Triton X in PBS for 5 min, and incubated with primary antibodies in 0.5% Triton X, 1% FBS in PBS for 30 min at RT. Antibodies were: CK18 (Santa Cruz, mouse monoclonal, 1:100) and CK14 (Millipore, mouse monoclonal, 1:100). After washing the cells were stained sequentially with AlexaFluor647-conjugated secondary antibody (Invitrogen, 1:200) and DAPI (Sigma, 1:5000). For immunohistochemistry, BPLER tumor sections were prepared from paraffin-embedded tissues, deparaffinized and treated with 10% citrate buffer for 15 min. Staining was performed using a BIOGENEX IHC DAB kit (Biogenex) following the manufacturer's protocol. Primary antibodies were: CK14 (Millipore, mouse monoclonal, 1:100), CK5 (Millipore, mouse monoclonal, 1:100), HH3 (Cell Signaling, rabbit polyclonal, 1:100), ER (Abcam, mouse monoclonal, 1:100), Vimentin (Invitrogen, mouse monoclonal 1:100), Ki67 (Millipore, mouse monoclonal, 1:100).

BPLER cells = assay: as above; format: cell-based, human; conditions: clinically relevant / low dose, 24 hours
Procedure: as §1, §2, §3

HMLER cells = assay: as above; format: cell-based, human; conditions: clinically relevant / low dose, 24 hours
Procedure: as §1, §2, §3

proteasome = proteasome (Homo sapiens, UniProt P28074); assay: Proteasome activity in BPLER tumors after treatment (ProteasomeGlo assay); format: in vivo, mouse; conditions: after 18 hours
Procedure: (6A) Proteasome activity in protein lysates from BPLER tumors 18 hours after intratumoral (i.t.), intraperithoneal (i.p) or intravenous (i.v.) treatment with bortezomib at the indicated dose, as determined by ProteasomeGlo assay. Proteasome activity in BPLER treated with bortezomib in vitro is shown as control. (6B-6E) Mean tumor volume (6B, 6D) in BPLER tumor-bearing mice after treatment with bortezomib or DMSO at the indicated dose, schedule and route of administration. Median tumor weight was measured at time of sacrifice (6C, 6E). […] (6F) Immunoblot analysis of protein lysates from BPLER tumors 18 hours after 1 intravenous dose of bortezomib at 1.6 mg/kg bortezomib or DMSO, showing efficient Noxa induction and caspase-3 and PARP1 cleavage after bortezomib treatment. (6G) Mean tumor volume in MB-468 tumor-bearing mice after intravenous treatment with 1.6 mg/kg bortezomib weekly. (6H) Schematic diagram illustrating generation of mouse TNBC primary tumor fragments for bortezomib-based therapy studies. […] 4T1-E tumors are shown as control. (6I, 6J) Mean V22 tumor volume (6I) after weekly intravenous infusion of bortezomib (1.6 mg/kg) or DMSO. Treatment was started 2 days after implantation of primary tumor fragments. […] The top and the bottom of each box represent the 75th and 25th percentile of tumor weight, respectively. Upper and lower whiskers represent maximum and minimum tumor weight, respectively. The black horizontal band in each box corresponds to median tumor weight.
Our data thus far indicate that highly malignant epithelial TNBC cells are selectively susceptible to proteasome inhibition. Bortezomib is already in the clinic for treatment of multiple myeloma and other lymphomas. […] To assess therapeutic efficacy, we administered bortezomib every 3 days (0.8 mg/kg i.t.) or weekly (1.6 mg/kg i.v.) after BPLER tumors, implanted in the flank of Nu/J mice, became palpable. BPLER tumor outgrowth was assessed by tumor volume during the treatment period and by tumor weight at the time of sacrifice. […]

[2] = test system: mesenchymal MDA-MB-231 and MDA-MB-436 cells; conditions: MB-231, MB-436
[3] = test system: BPE, HMLER and BPLER cells; assay: Cell cycle distribution (propidium iodide DNA staining)

Sequence of proteasome (P28074 60-263): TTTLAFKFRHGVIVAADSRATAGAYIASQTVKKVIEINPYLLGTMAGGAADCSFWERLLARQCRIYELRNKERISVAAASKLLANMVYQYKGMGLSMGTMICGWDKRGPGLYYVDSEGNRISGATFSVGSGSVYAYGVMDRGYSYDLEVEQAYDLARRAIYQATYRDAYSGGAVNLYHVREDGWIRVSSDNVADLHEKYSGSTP

## CC(C)C[C@H](NC(=O)[C@H](Cc1ccccc1)NC(=O)c1cnccn1)B(O)O [bortezomib]
[1]; Homo sapiens, luminal cells, 12.5 nM, 24 hr, read-out: decrease of cell viability
  cytotoxicity at 0.0125 µM: 5%
[1]; MCF7, BT-474
  sensitivity of ER+ and HER2+ breast cancer cell lines: resistant
BPE cells
  apoptosis (cleavage of caspase 3 and PARP): resistant to bortezomib-induced apoptosis
BPLER cells
  apoptosis (cleavage of caspase 3 and PARP): marked cleavage; also recorded: died of apoptosis
HMLER cells
  apoptosis (cleavage of caspase 3 and PARP): only partially; also recorded: minimal signs of apoptosis
proteasome; 1.6 mg/kg i.v.
  proteasome inhibition in the tumor: efficient proteasome activity inhibition
proteasome; 1 dose 0.8 mg/kg i.p. or i.v.
  proteasome inhibition in the tumor: less effective
proteasome; 1 dose 0.8 mg/kg i.t.
  proteasome inhibition in the tumor: Nearly complete proteasome inhibition
[2]
  sensitivity of mesenchymal breast cancer cell lines: resistant
[3]; BPE cells, 24 hours
  cell cycle distribution: underwent G2/M arrest
[3]; BPLER cells, low dose
  cell cycle distribution: did not undergo cell cycle arrest
[3]; HMLER cells, low dose
  cell cycle distribution: underwent G2/M arrest
